Data from paper PMC11173485, “Connecting GSK-3β Inhibitory Activity with IKK-β or ROCK-1 Inhibition to Target Tau Aggregation and Neuroinflammation in Alzheimer’s Disease—Discovery, In Vitro and In Cellulo Activity of Thiazole-Based Inhibitors” (Molecules, 2024).
Where two headings read alike, the source gives them in different places.

Columns and labels:
Type in all cases: biochemical
CDK6/cyclinD3 = biological target: T1, CDK6/cyclinD3 (Homo sapiens, UniProt Q00534); experiment: Eurofins KinaseProfiler radiometric selectivity screen; details: Km ATP, remaining enzyme activity, n = 2
T1 construct: purchased Eurofins Discovery (KinaseProfiler service)
T1 sequence (Q00534 whole entry): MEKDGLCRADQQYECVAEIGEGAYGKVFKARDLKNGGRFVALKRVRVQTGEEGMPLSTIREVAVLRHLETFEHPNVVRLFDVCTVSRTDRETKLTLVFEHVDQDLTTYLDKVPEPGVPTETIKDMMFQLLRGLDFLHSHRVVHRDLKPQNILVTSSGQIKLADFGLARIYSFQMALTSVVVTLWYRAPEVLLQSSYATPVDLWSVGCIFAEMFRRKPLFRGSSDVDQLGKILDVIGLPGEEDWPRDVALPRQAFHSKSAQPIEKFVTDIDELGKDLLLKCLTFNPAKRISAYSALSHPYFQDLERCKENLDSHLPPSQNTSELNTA
T1 sequence (P30281 whole entry partner): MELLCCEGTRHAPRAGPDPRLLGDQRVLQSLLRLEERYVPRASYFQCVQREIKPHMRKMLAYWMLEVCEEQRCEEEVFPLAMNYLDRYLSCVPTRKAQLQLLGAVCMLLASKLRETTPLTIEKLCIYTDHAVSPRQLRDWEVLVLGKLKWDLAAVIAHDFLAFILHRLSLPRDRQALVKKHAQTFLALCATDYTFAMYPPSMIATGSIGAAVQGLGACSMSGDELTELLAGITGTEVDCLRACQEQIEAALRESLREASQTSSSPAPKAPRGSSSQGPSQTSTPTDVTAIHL
Protocol: (§1) Compound 62 is an ATP-competitive inhibitor of GSK-3β, raising concerns about selectivity. Therefore, we performed a selectivity screening at Eurofins Discovery on the CMGC group of kinases, which included the CDK, DYRK, MAPK, and GSK families (Figure 3 and Table S1 in the SI).
(§2) Selectivity studies for compound 62
(§3) Selectivity studies were performed at Eurofins in Kinase Enzymatic Radiometric [Km ATP]
(§4) Kinase Profiler Lead Hunter Assay. The percentage of enzymatic activity was measured at 1
(§5) µM of compound 62 in duplicate for 17 selected kinases.
(§6) Table S1. Inhibitory activity of compound 62 against panel of selected CMGC kinases.
(§7) kinase % of enzyme activity at 1 μM of compound 62±SD*
(§8) *Where n = 2, the value reported here is actually range / √ 2 .

DYRK1A = biological target: T2, DYRK1A (Homo sapiens, UniProt Q13627); experiment: as above; details: Km ATP, remaining enzyme activity, n = 2
T2 construct: purchased Eurofins Discovery (KinaseProfiler service)
Protocol: as §1, §2, §3, §4, §5, §6, §7, §8

SAPK3 = biological target: T3, SAPK3 (Homo sapiens, UniProt P53778); experiment: as above; details: Km ATP, remaining enzyme activity, n = 2
T3 construct: purchased Eurofins Discovery (KinaseProfiler service)
Protocol: as §1, §2, §3, §4, §5, §6, §7, §8

JNK3 = biological target: T4, JNK3 (Homo sapiens, UniProt P53779); experiment: as above; details: Km ATP, remaining enzyme activity, n = 2
T4 construct: purchased Eurofins Discovery (KinaseProfiler service)
T4 sequence (P53779 whole entry): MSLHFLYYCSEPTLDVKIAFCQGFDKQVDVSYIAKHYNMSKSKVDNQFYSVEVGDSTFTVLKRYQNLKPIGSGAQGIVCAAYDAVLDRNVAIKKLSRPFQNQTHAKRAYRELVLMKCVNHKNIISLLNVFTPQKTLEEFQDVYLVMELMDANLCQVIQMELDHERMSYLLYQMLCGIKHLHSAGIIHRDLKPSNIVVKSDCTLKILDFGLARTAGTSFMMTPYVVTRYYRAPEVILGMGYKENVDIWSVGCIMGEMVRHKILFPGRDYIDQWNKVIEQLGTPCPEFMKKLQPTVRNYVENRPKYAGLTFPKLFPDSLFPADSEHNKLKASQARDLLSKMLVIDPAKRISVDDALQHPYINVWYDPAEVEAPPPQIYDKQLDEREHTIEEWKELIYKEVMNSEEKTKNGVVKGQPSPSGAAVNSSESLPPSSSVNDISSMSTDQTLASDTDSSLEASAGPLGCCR
Protocol: as §1, §2, §3, §4, §5, §6, §7, §8

CDK2/cyclinA = biological target: T5, CDK2/cyclinA (Homo sapiens, UniProt P24941); experiment: as above; details: Km ATP, remaining enzyme activity, n = 2
T5 construct: purchased Eurofins Discovery (KinaseProfiler service)
Protocol: as §1, §2, §3, §4, §5, §6, §7, §8

CDK7/cyclinH/ MAT1 = biological target: T6, CDK7/cyclinH/ MAT1 (Homo sapiens, UniProt P50613); experiment: as above; details: Km ATP, remaining enzyme activity, n = 2
T6 construct: purchased Eurofins Discovery (KinaseProfiler service)
T6 sequence (P50613 whole entry): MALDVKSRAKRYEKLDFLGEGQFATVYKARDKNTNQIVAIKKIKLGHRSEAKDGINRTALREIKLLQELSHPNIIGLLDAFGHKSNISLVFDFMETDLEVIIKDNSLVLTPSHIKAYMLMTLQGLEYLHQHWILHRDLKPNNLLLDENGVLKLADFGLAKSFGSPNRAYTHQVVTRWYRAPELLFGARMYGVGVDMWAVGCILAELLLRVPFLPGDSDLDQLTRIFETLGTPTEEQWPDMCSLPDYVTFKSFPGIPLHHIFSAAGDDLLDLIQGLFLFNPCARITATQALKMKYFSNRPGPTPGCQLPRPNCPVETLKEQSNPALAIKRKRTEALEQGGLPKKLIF
T6 sequence (P51946 whole entry partner): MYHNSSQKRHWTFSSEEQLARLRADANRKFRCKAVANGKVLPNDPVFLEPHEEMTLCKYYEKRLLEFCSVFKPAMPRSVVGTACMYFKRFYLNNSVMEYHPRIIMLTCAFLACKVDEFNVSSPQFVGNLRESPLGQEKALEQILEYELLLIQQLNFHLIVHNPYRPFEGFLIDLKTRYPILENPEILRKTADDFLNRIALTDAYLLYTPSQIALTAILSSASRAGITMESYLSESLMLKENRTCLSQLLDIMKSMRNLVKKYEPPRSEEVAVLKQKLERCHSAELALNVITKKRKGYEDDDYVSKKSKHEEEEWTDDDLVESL
T6 sequence (P51948 whole entry partner): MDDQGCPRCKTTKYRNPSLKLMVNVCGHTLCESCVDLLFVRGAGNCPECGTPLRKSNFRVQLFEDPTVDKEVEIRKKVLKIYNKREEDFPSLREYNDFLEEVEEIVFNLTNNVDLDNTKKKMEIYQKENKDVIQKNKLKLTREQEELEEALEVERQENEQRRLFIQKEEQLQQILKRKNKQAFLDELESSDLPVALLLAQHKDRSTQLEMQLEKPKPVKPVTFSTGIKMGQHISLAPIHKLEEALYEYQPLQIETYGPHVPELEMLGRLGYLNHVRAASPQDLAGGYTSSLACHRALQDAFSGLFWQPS
Protocol: as §1, §2, §3, §4, §5, §6, §7, §8

CDK9/cyclin T1 = biological target: T7, CDK9/cyclin T1 (Homo sapiens, UniProt P50750); experiment: as above; details: Km ATP, remaining enzyme activity, n = 2
T7 construct: purchased Eurofins Discovery (KinaseProfiler service)
Protocol: as §1, §2, §3, §4, §5, §6, §7, §8

MAPK2 = biological target: T8, MAPK2 (Homo sapiens, UniProt P28482); experiment: as above; details: Km ATP, remaining enzyme activity, n = 2
T8 construct: purchased Eurofins Discovery (KinaseProfiler service)
T8 sequence (P28482 whole entry): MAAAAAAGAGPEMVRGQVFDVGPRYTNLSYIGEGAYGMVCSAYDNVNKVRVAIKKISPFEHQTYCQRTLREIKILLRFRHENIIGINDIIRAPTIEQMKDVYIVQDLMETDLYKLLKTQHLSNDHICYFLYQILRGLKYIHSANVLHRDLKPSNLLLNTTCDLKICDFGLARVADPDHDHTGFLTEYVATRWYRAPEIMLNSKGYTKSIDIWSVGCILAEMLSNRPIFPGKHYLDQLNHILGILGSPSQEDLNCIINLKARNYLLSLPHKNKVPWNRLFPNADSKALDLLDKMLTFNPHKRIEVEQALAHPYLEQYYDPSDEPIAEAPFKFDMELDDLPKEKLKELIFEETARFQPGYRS
Protocol: as §1, §2, §3, §4, §5, §6, §7, §8

CDK4/cyclinD3 = biological target: T9, CDK4/cyclinD3 (Homo sapiens, UniProt P11802); experiment: as above; details: Km ATP, remaining enzyme activity, n = 2
T9 construct: purchased Eurofins Discovery (KinaseProfiler service)
Protocol: as §1, §2, §3, §4, §5, §6, §7, §8

MAPK1 = biological target: T10, MAPK1 (Homo sapiens, UniProt P27361); experiment: as above; details: Km ATP, remaining enzyme activity, n = 2
T10 construct: purchased Eurofins Discovery (KinaseProfiler service)
Protocol: as §1, §2, §3, §4, §5, §6, §7, §8

GSK-3α = biological target: T11, GSK-3α (Homo sapiens, UniProt P49840); experiment: as above; details: Km ATP, remaining enzyme activity, n = 2
T11 construct: purchased Eurofins Discovery (KinaseProfiler service)
Protocol: as §1, §2, §3, §4, §5, §6, §7, §8

JNK2α2 = biological target: T12, JNK2α2 (Homo sapiens, UniProt P45984); experiment: as above; details: Km ATP, remaining enzyme activity, n = 2
T12 construct: purchased Eurofins Discovery (KinaseProfiler service)
T12 sequence (P45984 whole entry): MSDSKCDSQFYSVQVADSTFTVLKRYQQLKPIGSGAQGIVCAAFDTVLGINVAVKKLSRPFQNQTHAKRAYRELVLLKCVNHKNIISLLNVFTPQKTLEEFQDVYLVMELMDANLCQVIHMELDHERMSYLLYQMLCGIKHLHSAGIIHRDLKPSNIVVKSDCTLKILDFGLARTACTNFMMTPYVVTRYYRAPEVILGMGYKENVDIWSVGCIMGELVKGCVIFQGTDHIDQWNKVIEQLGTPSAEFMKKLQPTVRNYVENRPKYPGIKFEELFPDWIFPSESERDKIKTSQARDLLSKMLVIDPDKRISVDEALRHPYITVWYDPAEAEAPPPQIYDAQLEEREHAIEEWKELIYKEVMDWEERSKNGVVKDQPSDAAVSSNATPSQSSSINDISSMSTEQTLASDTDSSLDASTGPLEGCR
Protocol: as §1, §2, §3, §4, §5, §6, §7, §8

SAPK2b = biological target: T13, SAPK2b (Homo sapiens, UniProt Q15759); experiment: as above; details: Km ATP, remaining enzyme activity, n = 2
T13 construct: purchased Eurofins Discovery (KinaseProfiler service)
T13 sequence (Q15759 whole entry): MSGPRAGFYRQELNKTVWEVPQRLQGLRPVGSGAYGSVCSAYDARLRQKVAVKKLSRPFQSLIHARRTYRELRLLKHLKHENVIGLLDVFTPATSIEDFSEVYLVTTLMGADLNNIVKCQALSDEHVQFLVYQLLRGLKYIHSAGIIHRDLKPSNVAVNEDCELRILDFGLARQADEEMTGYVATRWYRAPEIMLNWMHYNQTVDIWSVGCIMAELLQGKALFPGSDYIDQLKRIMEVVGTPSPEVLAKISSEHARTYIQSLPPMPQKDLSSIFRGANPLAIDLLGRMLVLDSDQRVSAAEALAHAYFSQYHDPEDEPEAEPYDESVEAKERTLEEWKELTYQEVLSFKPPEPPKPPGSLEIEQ
Protocol: as §1, §2, §3, §4, §5, §6, §7, §8

SAPK2a(T106M) = biological target: T14, SAPK2a(T106M) (Homo sapiens, UniProt Q16539, T106M); experiment: as above; details: Km ATP, remaining enzyme activity, n = 2
T14 construct: purchased Eurofins Discovery (KinaseProfiler service)
T14 sequence (Q16539 whole entry T106M): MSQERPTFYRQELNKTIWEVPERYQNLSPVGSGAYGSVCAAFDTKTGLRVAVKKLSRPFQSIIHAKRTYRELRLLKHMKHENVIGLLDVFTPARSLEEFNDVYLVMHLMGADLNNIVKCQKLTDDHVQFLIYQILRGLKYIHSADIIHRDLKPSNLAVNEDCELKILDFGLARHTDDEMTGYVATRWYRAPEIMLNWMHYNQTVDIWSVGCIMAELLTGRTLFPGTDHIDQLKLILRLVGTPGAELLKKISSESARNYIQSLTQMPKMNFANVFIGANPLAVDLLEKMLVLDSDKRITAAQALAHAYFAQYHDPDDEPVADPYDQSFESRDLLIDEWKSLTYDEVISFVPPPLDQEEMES
Protocol: as §1, §2, §3, §4, §5, §6, §7, §8

CDK1/cyclinB = biological target: T15, CDK1/cyclinB (Homo sapiens, UniProt P06493); experiment: as above; details: Km ATP, remaining enzyme activity, n = 2
T15 construct: purchased Eurofins Discovery (KinaseProfiler service)
Protocol: as §1, §2, §3, §4, §5, §6, §7, §8

DYRK1B = biological target: T16, DYRK1B (Homo sapiens, UniProt Q9Y463); experiment: as above; details: Km ATP, remaining enzyme activity, n = 2
T16 construct: purchased Eurofins Discovery (KinaseProfiler service)
T16 sequence (Q9Y463 whole entry): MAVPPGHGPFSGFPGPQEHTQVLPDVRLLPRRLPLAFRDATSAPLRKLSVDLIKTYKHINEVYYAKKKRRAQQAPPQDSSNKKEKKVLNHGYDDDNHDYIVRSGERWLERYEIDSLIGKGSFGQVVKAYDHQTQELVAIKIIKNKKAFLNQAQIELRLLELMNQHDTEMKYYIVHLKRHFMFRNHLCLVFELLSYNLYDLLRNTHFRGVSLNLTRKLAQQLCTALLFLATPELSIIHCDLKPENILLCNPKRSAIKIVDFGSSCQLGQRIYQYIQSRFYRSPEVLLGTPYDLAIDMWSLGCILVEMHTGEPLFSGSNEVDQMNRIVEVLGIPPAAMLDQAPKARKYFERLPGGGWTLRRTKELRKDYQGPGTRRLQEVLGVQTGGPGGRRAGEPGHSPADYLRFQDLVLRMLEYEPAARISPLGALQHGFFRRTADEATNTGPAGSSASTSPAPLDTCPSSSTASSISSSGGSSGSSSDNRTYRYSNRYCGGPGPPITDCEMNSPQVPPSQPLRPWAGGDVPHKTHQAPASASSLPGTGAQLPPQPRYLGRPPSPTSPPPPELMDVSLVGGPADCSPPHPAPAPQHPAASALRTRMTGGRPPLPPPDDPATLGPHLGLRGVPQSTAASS
Protocol: as §1, §2, §3, §4, §5, §6, §7, §8

GSK-3β [1] = biological target: T17, GSK-3β (Homo sapiens, UniProt P49841); experiment: Kinetic studies of GSK-3β inhibition (ADP-Glo, varying ATP); design: purchased Promega
T17 sequence (P49841 whole entry): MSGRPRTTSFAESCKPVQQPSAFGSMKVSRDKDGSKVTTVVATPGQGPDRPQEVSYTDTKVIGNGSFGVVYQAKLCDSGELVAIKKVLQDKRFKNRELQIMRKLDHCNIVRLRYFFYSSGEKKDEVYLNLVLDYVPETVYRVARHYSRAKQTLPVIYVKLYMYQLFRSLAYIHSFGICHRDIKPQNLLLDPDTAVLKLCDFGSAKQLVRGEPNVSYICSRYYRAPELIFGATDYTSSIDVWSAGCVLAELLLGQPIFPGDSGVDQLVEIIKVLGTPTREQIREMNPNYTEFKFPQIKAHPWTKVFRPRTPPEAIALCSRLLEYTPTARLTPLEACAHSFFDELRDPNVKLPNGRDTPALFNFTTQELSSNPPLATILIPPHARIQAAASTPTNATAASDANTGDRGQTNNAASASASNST
Protocol: Non-linear regression analysis of the Michaelis–Menten equation was conducted on ATP-velocity curves to calculate the Vmax and Km parameters. […] Lineweaver–Burk and Cornish–Bowden plots, included in the Supporting Information (Figure S1A,B), further illustrate this observation. […] (refer to Supporting Information, Figure S2). The negative Ki value was directly derived from the plot at the x-axis intersection.
Kinetic studies were performed using the GSK-3β Kinase Enzyme System (Promega; Madison, WI, USA) and ADP-Glo™ bioluminescent assay (Promega; Madison, WI, USA), following the manufacturer’s instructions. The general workflow is described in Section 6.9. Evaluation of In Vitro Inhibitory Potencies towards Kinases GSK-3β, IKK-β, and ROCK-1. […] The substrate concentration was kept constant. The luminescence was measured using the EnSpire multimode microplate reader (PerkinElmer, Waltham, MA, USA). Each data point was collected in triplicate. Vmax and Km values of the Michaelis–Menten kinetics were calculated using nonlinear regression from ATP–velocity curves. Lineweaver–Burk and Cornish–Bowden plots were obtained via linear regression in GraphPad Prism (GraphPad Prism 9; GraphPad Software, San Diego, CA, USA). The Ki value of inhibitor 62 was determined by replotting the Lineweaver–Burk plots data (Km versus [I]).
Kinetic studies of GSK-3β inhibition by compound 62
type of GSK-3β inhibition by compound 62; V = initial velocity rate, S = ATP concentration,
I = inhibitor concentration.
Figure S2. Determination of Ki value for ATP-competitive inhibitor 62. Data replot from
= Michaelis-Menten constant.
(also on this page, place not known: K i -15 -10 -5 5 10 15 -100 -50 50 100 Cmpd 62_Ki determination I [nM] Km -Ki) […]

GSK-3β [2] = biological target: T17, GSK-3β; experiment: Eurofins KinaseProfiler radiometric selectivity screen; design: purchased Eurofins Discovery (KinaseProfiler service)
Protocol: as §1, §2, §3, §4, §5, §6, §7, §8

Question: For O=C1NC2(CCOC2)Nc2cc(-c3ccnc(NC(=O)C4CC4)c3)sc21 (stereo not drawn) [Compound 62, N-(4-(4′-Oxo-3′,4,4′,5-tetrahydro-1′H,2H-spiro[furan-3,2′-thieno [3,2-d]pyrimidin]-6′-yl)pyridin-2-yl)cyclopropanecarboxamide], which “% of enzyme activity at 1 μM of compound 62±SD, CDK6/cyclinD3” value (CDK6/cyclinD3) is on record?
Answer: 88±0%

Question: And the “% of enzyme activity at 1 μM of compound 62±SD, DYRK1A” value (DYRK1A)?
Answer: 1±1%

Question: What about the “% of enzyme activity at 1 μM of compound 62±SD, SAPK3” value (SAPK3) of the same compound?
Answer: 22±3%

Question: And the “% of enzyme activity at 1 μM of compound 62±SD, JNK3” value (JNK3)?
Answer: 21±2%

Question: What about the “% of enzyme activity at 1 μM of compound 62±SD, CDK2/cyclinA” value (CDK2/cyclinA) of the same compound?
Answer: 26±2%

Question: And the “% of enzyme activity at 1 μM of compound 62±SD, CDK7/cyclinH/ MAT1” value (CDK7/cyclinH/ MAT1)?
Answer: 57±1%

Question: And the “% of enzyme activity at 1 μM of compound 62±SD, CDK9/cyclin T1” value (CDK9/cyclin T1)?
Answer: 16±2%

Question: And the “% of enzyme activity at 1 μM of compound 62±SD, MAPK2” value (MAPK2)?
Answer: 73±7%

Question: What about the “% of enzyme activity at 1 μM of compound 62±SD, CDK4/cyclinD3” value (CDK4/cyclinD3) of the same compound?
Answer: 83±5%

Question: What about the “% of enzyme activity at 1 μM of compound 62±SD, MAPK1” value (MAPK1) of the same compound?
Answer: 37±2%

Question: What about the “% of enzyme activity at 1 μM of compound 62±SD, GSK-3α” value (GSK-3α) of the same compound?
Answer: 0±0%

Question: And the “% of enzyme activity at 1 μM of compound 62±SD, JNK2α2” value (JNK2α2)?
Answer: 89±14%

Question: And the “% of enzyme activity at 1 μM of compound 62±SD, SAPK2b” value (SAPK2b)?
Answer: 98±1%

Question: And the “% of enzyme activity at 1 μM of compound 62±SD, SAPK2a(T106M)” value (SAPK2a(T106M))?
Answer: 80±1%

Question: And the “% of enzyme activity at 1 μM of compound 62±SD, CDK1/cyclinB” value (CDK1/cyclinB)?
Answer: 33±1%

Question: And the “% of enzyme activity at 1 μM of compound 62±SD, DYRK1B” value (DYRK1B)?
Answer: 1±1%

Question: What about the “type of GSK-3β inhibition” value (GSK-3β [1]; ATP 10-100 μM, inhibitor 0-100 nM, Km rises, Vmax preserved) of the same compound?
Answer: ATP-competitive

Question: And the Ki (GSK-3β [1]; replot from Lineweaver-Burk plots, unit inferred, read-out: Determined Ki (Figure S2))?
Answer: 2.22 nM

Question: And the Ki (GSK-3β [1]; replot of Lineweaver–Burk data, Km versus [I], read-out: Ki GSK-3β)?
Answer: 2 nM

Question: What about the “% of enzyme activity at 1 μM of compound 62±SD, GSK-3β” value (GSK-3β [2]; Km ATP, remaining enzyme activity, n = 2) of the same compound?
Answer: 1±1%

Question: What about the inhibition at 1 µM (GSK-3β [2]; text says GSK family) of the same compound?
Answer: 99%
